For this assay, the target named is T1, PbRex8 (Paenibacillus barengoltzii, UniProt R9L536).
T1 construct: gene C812_03928; full-length ORF, 382 residues (predicted 44 kDa), no signal peptide; N-terminal His6-tag from pET-28a(+) (NheI/XhoI), tag cleavage not mentioned; E. coli BL21(DE3); monomer; primers encode N-terminal MKEHQG and C-terminal RGEA
Description: HPLC-RID xylose release, nonlinear regression. The conditions noted are these: competitive; X3 as substrate, 5 mM citrate pH 5.5, 55 °C. The class given is biochemical.

The structures appear in SMILES notation.

T1 sequence (R9L536 entry or part of it): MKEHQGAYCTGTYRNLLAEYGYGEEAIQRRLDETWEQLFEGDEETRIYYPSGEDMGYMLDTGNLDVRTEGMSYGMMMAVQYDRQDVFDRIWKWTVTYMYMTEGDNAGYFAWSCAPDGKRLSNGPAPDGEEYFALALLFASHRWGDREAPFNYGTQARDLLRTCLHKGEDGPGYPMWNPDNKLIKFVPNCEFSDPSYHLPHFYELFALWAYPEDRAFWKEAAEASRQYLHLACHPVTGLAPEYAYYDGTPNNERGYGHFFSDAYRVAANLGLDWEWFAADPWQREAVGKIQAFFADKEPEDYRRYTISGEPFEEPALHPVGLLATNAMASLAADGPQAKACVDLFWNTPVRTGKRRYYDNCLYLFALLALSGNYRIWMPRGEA

The term Ki denotes a dissociation constant, usually derived from enzyme kinetics or from competition with a known ligand. The low end stands for a stronger hold on the target, the high end for a looser hold on the target. `OC1OC[C@@H](O)[C@H](O)[C@H]1O` (stereo partly shown) [X, xylose] registered a Ki of 12.9 ± 0.6 mM.

Source of the values: publication PMC6661730, “Biochemical characterization of a novel exo-oligoxylanase from Paenibacillus barengoltzii suitable for monosaccharification from corncobs” (Biotechnology for Biofuels, 2019).
